Results published in article PMC10000267, “ALA‐A2 Is a Novel Anticancer Peptide Inspired by Alpha‐Lactalbumin: A Discovery from a Computational Peptide Library, In Silico Anticancer Peptide Screening and In Vitro Experimental Validation” (Global Challenges, 2023).
Residues, ends and D or L forms follow the SMILES beside them.

Tests used:
[1] = system: K562 leukemia cells; test: In vitro cancer cytotoxicity (MTT assay); type: cell-based, human; conditions: K562, peptide 200 µM, 24 h
Method: (§1) All cell lines were obtained from the American Type Culture Collection (ATCC, Manassas, VA, USA). The A549 lung adenocarcinoma (ATCC CCL‐185TM), MDA‐MB‐231 triple‐negative breast adenocarcinoma (ATCC HTB‐26TM), and SH‐SY5Y neuroblastoma (ATCC CRL‐2266TM) cell lines were cultured in Dulbecco's Modified Eagle's Medium (DMEM)‐high glucose (Gibco, Thermo Fisher Scientific, MA, USA). HT29 colon adenocarcinoma (ATCC HTB‐38) cell lines were maintained in DMEM/Nutrient Mixture F‐12 (Gibco). K562 chronic myeloid leukemia (ATCC CRL‐3344) were grown in Roswell Park Memorial Institute Medium 1640 (Gibco). The cells were cultured in medium supplemented with 10% fetal bovine serum (Gibco) and 1× penicillin/streptomycin (Gibco) and incubated in a 5% CO2 incubator with saturated humidity.
(§2) The protocol previously described by Chiangjong et al. and Baindara et al.^[ [5], [29] ^] was modified for use in determining the cytotoxicity of peptides on the various cancer types. Adherent cells were seeded at 1 × 10^4 cells/well into a 96‐well plate 24 h prior to replacing the media containing the peptide of interest. Suspended cells were seeded at 1 × 10^4 cells/well in the media containing the peptide of interest. Five human cell lines, including lung cancer (A549), colon cancer (HT29), breast cancer (MDA‐MB‐231), neuroblastoma (SH‐SY5Y), and leukemia (K562) cells, were treated with the culture media containing the peptides at 200 µM for 24 h. Cell viability was then determined using Cell Proliferation Kit I, MTT (Roche Diagnostics GmbH, Mannheim, Germany): MTT labeling reagent (10 µL) was added to each well and incubated at 37 °C in a 5% CO2 atmosphere for 4 h. After incubation, 100 µL solubilizing solution was added to each well and incubated at 37 °C in 5% CO2 overnight. The absorbance at 570 nm (A 570) was measured for each well. The percentage of cell viability was calculated as: (1) % Cell Viability=[A570 of treated cells − A570 of media/A570 of untreated cells−A570 of media] × 100

[2] = system: MDA‐MB‐231 breast cancer cells; test: In vitro cancer cytotoxicity (MTT assay); type: cell-based, human; conditions: MDA‐MB‐231, peptide 200 µM, 24 h
Method: as §1, §2

[3] = system: SH‐SY5Y neuroblastoma cells; test: In vitro cancer cytotoxicity (MTT assay); type: cell-based, human; conditions: peptide 200 µM, 24 h
Method: as §1, §2

[4] = system: HT29 colon adenocarcinoma cells; test: In vitro cancer cytotoxicity (MTT assay); type: cell-based, human; conditions: 24 h
Method: as §1, §2
(§3) To evaluate dose‐dependency, ≈1 × 10^4 cells/well were cultured in media containing ALA‐A2 at 0, 6.25, 12.5, 25, 50, 100, 200, and 400 µM in a 96‐well plate for 24 h. Cell viability was determined by the MTT assay, as above.

[5] = system: A549 lung adenocarcinoma cells; test: In vitro cancer cytotoxicity (MTT assay); type: cell-based, human; conditions: 24 h
Method: as §1, §2, §3

[6] = system: Human red blood cells; test: Ex vivo hemolysis assay (RBC lysis assay); type: cell-based; conditions: ≈0.8% v/v human RBC suspension in 0.9% normal saline, peptide 200 µM, 1 h, room temperature, absorbance 415 nm, relative to 1% Triton X‐100; blood of three healthy individuals, mean ± SD
Method: The hemolysis assay was as described previously.^[ [30] ^] After informed consent, peripheral blood (3 mL) was collected from three healthy individuals into heparin tubes (BD Biosciences, NJ, USA). The specimen was centrifuged at 2000 × g for 5 min at room temperature, and the plasma was discarded. The RBCs were washed twice with PBS and then resuspended in 0.9% normal saline solution at a volume equivalent to that of the original plasma. Approximately 0.8% v/v RBC suspension was incubated with the peptides at 200 µM (100 µL final volume) in a U‐bottom 96‐well plate at room temperature for 1 h with agitation. 1% v/v Triton X‐100 was applied as a positive control. The untreated condition served as the blank control. After 1 h incubation, the supernatants were collected by centrifuging at 2000 × g for 5 min at room temperature. The absorbance of hemoglobin in the supernatant was measured at 415 nm. The hemolysis percentage was calculated as follows: (2) % Hemolysis = [sample absorbance−blank control/positive control−blank control] × 100

## CC(C)C[C@H](NC(=O)[C@@H](N)CCCCN)C(=O)N[C@@H](Cc1c[nH]c2ccccc12)C(=O)N[C@@H](CS)C(=O)N[C@@H](CCCCN)C(=O)N[C@@H](CO)C(=O)N[C@@H](CO)C(=O)N[C@@H](CCC(N)=O)C(=O)N[C@H](C(=O)N1CCC[C@H]1C(=O)N[C@@H](CCC(N)=O)C(=O)N[C@@H](CO)C(=O)N[C@@H](CCCNC(=N)N)C(=O)O)C(C)C [ALA‐A2] (H-KLWCKSSQVPQSR-OH)
[1]
  anticancer effect (in words): did not affect
[2]
  anticancer effect (in words): did not affect
[3]
  anticancer effect (in words): did not affect
[4]; HT29, peptide 200 µM, 37 °C, A570, mean ± SD, three biological replicates
  cell viability: 55.3 ± 2.7 % cell viability
[4]; HT29, twofold serial dilutions 0 to 400 µM, extrapolated beyond the tested range
  IC50: > 1000 µM
[5]; A549, peptide 200 µM, 37 °C, A570, mean ± SD, three biological replicates
  cell viability: 59.7 ± 1.1 % cell viability
[5]; A549, twofold serial dilutions 0 to 400 µM
  IC50: ~300 µM
[6]
  percent hemolysis: 7.8% ± 10.2%
